Laboratory results: patent publication US9883669B2, “Maintenance medium for primate pluripotent stem cells” (priority 2014, dated 2018)

Test system: human iPS cells (253G1 lines and 201B7 lines)
Experiment: Observation of colony morphology of human iPS cells by light microscope
Type: cell-based
Details: xylose 3 g/L, 0, 24, 48, 72 hours, KSR
Procedure: During culture period, medium change was performed daily.
For a xylose medium for iPS cells in which xylose concentrations were 3 g/L and 15 g/L, the morphology of iPS cell colonies at 96 and 120 hours after culture was also observed with a light microscope (IX70, manufactured by Olympus Corporation).

Row | SMILES | colony morphology and proliferation inhibitory effects, D-xylose versus L-xylose
1 | O=C[C@H](O)[C@@H](O)[C@H](O)CO [D-xylose] | no differences
2 | O=C[C@@H](O)[C@H](O)[C@@H](O)CO [L-xylose] | no differences
